Paper PMC6442460 (Journal of chemical information and modeling, 2018)
Like-named read-outs stand apart in the source and are kept apart here.

What was measured:
[1] = target: T1, ECL (Erythrina cristagalli lectin) (Erythrina crista-galli, UniProt P83410); settings: cited from earlier work
T1 sequence (P83410 1-239): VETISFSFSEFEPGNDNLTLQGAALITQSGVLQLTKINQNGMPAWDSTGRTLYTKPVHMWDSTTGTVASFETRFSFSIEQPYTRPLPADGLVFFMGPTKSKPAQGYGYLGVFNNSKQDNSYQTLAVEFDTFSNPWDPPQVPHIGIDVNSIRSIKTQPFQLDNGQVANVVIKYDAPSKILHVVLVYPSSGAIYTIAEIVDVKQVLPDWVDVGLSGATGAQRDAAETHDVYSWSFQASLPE

[2] = target: T1, ECL (Erythrina cristagalli lectin); settings: cited from earlier work; remark: listed apart in the source
[3] = target: T1, ECL (Erythrina cristagalli lectin); experiment: Protein BLI inhibition; type: binding; settings: for ΔG: binding free energy from BLI KD, standard deviations in parentheses; for affinity for ECL (result in words): BLI
[4] = target: T1, ECL (Erythrina cristagalli lectin); settings: cited from earlier work; remark: listed apart in the source
[5] = target: T1, ECL (Erythrina cristagalli lectin); experiment: Isothermal titration calorimetry; type: binding; settings: relative to 1

SMILES	inhibitory power relative to D-Gal (result in words) [1]	ΔG [3]	binding in glycan array screening of ECL [4]	other results
O=C[C@@H](O)[C@H](O)[C@H](O)CO [D-Ara]	poor inhibitors			
OC[C@H]1OC(O)[C@H](O)[C@@H](O)[C@H]1O (stereo partly drawn) [D-Gal, reference compound]				reference ΔG ([2]; ITC at 25 °C): –4.0 (<0.1) kcal/mol
CC(=O)N[C@H]1C(O)O[C@H](CO)[C@@H](O)[C@@H]1O (stereo partly drawn) [D-GlcNAc]	poor inhibitors			
OC[C@H]1OC(O)[C@H](O)[C@@H](O)[C@@H]1O (stereo partly drawn) [D-Glc]	poor inhibitors			
C[C@@H]1OC(O)[C@@H](O)[C@H](O)[C@@H]1O (stereo partly drawn) [L-Fuc]	poor inhibitors			
OC[C@H]1O[C@@H](O[C@H]2[C@H](O)[C@@H](O)[C@H](O)O[C@@H]2CO)[C@H](O)[C@@H](O)[C@H]1O [ligand 1, lactose]		–4.83 (0.04) kcal/mol	nonbinders	reference ΔG ([2]; ITC at 25 °C): –4.8 (<0.1) kcal/mol; reference ΔG ([2]; ITC at 27 °C): –4.9 (0.2) kcal/mol
OC[C@H]1O[C@@H](O[C@H]2[C@H](O)[C@H](O)C(O)O[C@@H]2CO)[C@H](O)[C@@H](O)[C@H]1O (stereo partly drawn) [ligand 2, epi-lactose]		–5.08 (0.02) kcal/mol		
CC(=O)N[C@H]1C(O)O[C@H](CO)[C@@H](O[C@@H]2O[C@H](CO)[C@H](O)[C@H](O)[C@H]2O)[C@@H]1O (stereo partly shown) [ligand 3, N-acetyllactosamine]		–5.66 (0.04) kcal/mol	binders	fold higher affinity of ECL [5]: about 3 fold; reference ΔG ([2]; ITC at 27 °C): –5.5 (0.1) kcal/mol
CC(=O)N[C@H]1[C@H](O[C@H]2[C@H](O)[C@@H](NC(C)=O)C(O)O[C@@H]2CO)O[C@H](CO)[C@H](O)[C@@H]1O (stereo partly shown) [ligand 4, N,N-diacetyllactosamine]			binders	
C[C@@H]1O[C@@H](O[C@H]2[C@H](O[C@H]3[C@H](O)[C@@H](O)C(O)O[C@@H]3CO)O[C@H](CO)[C@H](O)[C@@H]2O)[C@@H](O)[C@H](O)[C@@H]1O (stereo partly shown) [ligand 5, fucosylated lactose]		–5.04 (0.06) kcal/mol	nonbinders	reference ΔG ([2]; ITC at 25 °C): –4.8 (<0.1) kcal/mol
CC(=O)N[C@H]1C(O)O[C@H](CO)[C@@H](O[C@@H]2O[C@H](CO)[C@H](O)[C@H](O)[C@H]2O[C@@H]2O[C@@H](C)[C@@H](O)[C@@H](O)[C@@H]2O)[C@@H]1O (stereo partly shown) [ligand 6, fucosylated N-acetyllactosamine]		–6.21 (0.14) kcal/mol	binders	
O=C[C@H](O)[C@@H](O)[C@H](O[C@@H]1O[C@H](CO)[C@@H](O)[C@H](O)[C@H]1O)[C@H](O)CO [ligand 7, cellobiose]				affinity for ECL (result in words) [3]: Neither cellobiose (Glcβ1–4Glcβ, 7) nor maltose (Glcα1–4Glcβ, 8) shows any measurable affinity
OC[C@H]1O[C@H](O[C@H]2[C@H](O)[C@@H](O)[C@H](O)O[C@@H]2CO)[C@H](O)[C@@H](O)[C@@H]1O [ligand 8, maltose]				affinity for ECL (result in words) [3]: Neither cellobiose (Glcβ1–4Glcβ, 7) nor maltose (Glcα1–4Glcβ, 8) shows any measurable affinity
